Data from patent US12606833B2, “Modified mini-nucleosome core proteins and use in nucleic acid delivery” (priority 2020, dated 2026).
Where no end group is shown, it is not given here. [ ]: non-standard residue; d: D form. LINKER = not defined here

Tests used:
retina and RPE cells = test: GFP expression in retina and RPE after intravitreal injection in mice; assay type: in vivo, Balb/c mice; settings: 1.5 micrograms, GFP plasmid, FIGS. 10 and 12
Experimental: In the present Example, Balb/c mice were anesthetized by IP injection with Ketamine/Xylazine (90-100 mg/kg+10 mg/kg) and positioned underneath a microscope. Mice eyes were dilated with topical Tropicamide (1%) and 1 μl of loaded mini-nucleosomes (total dose 1.5 micrograms in mice) were injected into the vitreous cavity using 32 gauge blunt needle passing through the incision made by a 25-gauge needle below the limbus. At various time points, mice were perfused with 10 ml of 1xPBS, and then sacrificed using standard techniques. Mice were enucleated and eyecups were collected and incubated in 4% paraformaldehyde overnight. The eyecups were washed with 1xPBS, then immersed in 15% sucrose for few hours and then in 30% sucrose solution overnight for cryopreservation. The eyecups were then placed in a plastic vial and frozen using OCT compound for cryo-sectioning. 10-micron thick tissue sections were obtained for staining. The retinal sections were mounted with mounting media with or without DAPI, coverslip and sealed. Images were acquired by Leica SP5. For wholemount imaging, eyecups were fixed in 4% paraformaldehyde overnight. Eyecups were washed in 1xPBS, retina was removed and the remaining eyecup or RPE wholemount was processed for staining. The RPE tissue was wholemounted with mounting media, coverslip and sealed. Images were acquired by Leica SP5.

RPE cells = test: GFP expression in rat retinal tissue after intraocular delivery; assay type: in vivo; settings: rat eyes, FIG. 11
Source text: To selectively transduce photoreceptors, the present Example utilized core proteins like those of SEQ ID NO:394. […] This neuronal attachment domain has not been previously applied for non-viral vectors to target neurons. The present disclosure provides that this neuronal targeted vector can transduce neurons in the brain via local or systemic administration. The present disclosure further provides for targeting photoreceptor binding and internalization by incorporating lectin binding domains (described in Table 4) in mini-nucleosomes for attachment to photoreceptor extracellular matrix to enhance uptake. […] Moreover, more than one domain could be utilized to selectively transduce a plurality of diverse cell types. This core protein (SEQ ID NO: 390) with integrin binding properties may also be utilized for delivery of nucleic acids to other cell types that express high levels of aVB5 integrin. The present disclosure further provides use of other intra-ocular injection techniques such as subretinal, suprachoroidal, intra-cameral, or topical administration to target photoreceptors, RPE, Mueller cells or other cell types in the retina.

[1] = Transmission Electron Microscopy (TEM) of loaded mini-nucleosomes; assay type: physicochemical; settings: luciferase plasmid (SEQ ID NO: 396) condensed with core protein, formulated in water
Experimental: To form loaded mini-nucleosomes represented in FIG. 7, core proteins were synthesized by solid phase synthesis using trifluoroacetate buffers. 200 micrograms of DNA (SEQ ID NO: 396) were added to 1 milligram of lyophilized core proteins and vortexed together, and purified to produce loaded mini-nucleosomes (FIG. 7). Buffer exchange was performed and final formulation of mini-nucleosome was made in sterile, endotoxin free water. 1 microgram of each kind of mini-nucleosomes was diluted in water and then placed on grids that were stained with freshly prepared in 0.75% uranyl acetate in methanol solution for two minutes. Grids were dipped in 100% ethanol and then blotted into lens absorbent paper. The grids were then air-dried for few minutes with film side up and taken for imaging with Hammatsu ORCA HR camera (FIG. 7).

lung epithelium = test: GFP expression after intranasal delivery (lung sections with CFTR staining, whole lung imaging, trachea); assay type: in vivo, Balb/c mice; settings: 5-week post injection, FIGS. 15 and 16
Experimental: In the present Example, Balb/c mice were anesthetized by IP injection with Ketamine/Xylazine (90-100 mg/kg+10 mg/kg) and the anesthetized mice were positioned underneath a microscope for visual of the nasal area for intranasal delivery. 1 μl of loaded mini-nucleosome (SEQ ID NO: 390+GFP plasmid) solution was delivered into the nasal cavity every few seconds until 12 microliters were delivered to each nasal side. Total dose of 25 micrograms was delivered. Following sacrifice, mice lung was processed to obtain 10 micron thick sections. Sections were washed in PBS and incubated in blocking buffer (0.1% TritonX-100, 1% BSA, 3% donkey serum) for 1 hr and then incubated in CFTR antibody (prepared on blocking buffer) blocking buffer overnight at 4 degree Celsius. Next day wash in PBS 3×5 min and incubated in AlexaFlour-555 (Donkey Anti-rabbit IgG secondary) in blocking buffer at RT for 1 hour and washed in PBS 3×5 min. Mounting media was added and coverslip was applied and sealed. Native fluorescence of GFP was obtained in the 486 nm channel of Leica SP5 scope in the 486-nm wavelength and CFTR expression in the 555-nm channel.
In the present Example, whole lung tissue and biodistribution via mini-nucleosome was also evaluated (FIG. 15). […] Whole tissues were placed in the Odyssey imager for detecting GFP native fluorescence.

skeletal muscle cells = test: GFP expression in leg muscle after intramuscular injection (dystrophin immunolabeling); assay type: in vivo, Balb/c mice; settings: 17.5 μg per leg, 3-month time point, FIG. 18
Experimental: Balb/c mice were anesthetized by IP injection with Ketamine/Xylazine (90-100 mg/kg+10 mg/kg) and several loaded mini-nucleosomes were injected into both leg muscle at 17.5 μg doses per leg using an insulin syringe (Total dose 35 micrograms per mice). Mice were sacrificed at various time points and leg muscle were obtained for tissue sections. […] One skilled in the art may contemplate combining such domains with other domains known for muscle tropism.
To validate muscle specificity of expression of genes encoded by the nucleic acid cargo, we utilized dystrophin immunolabeling as an endogenous secondary marker. […] Native fluorescence of GFP was obtained in the 486-nm channel of Leica SP5 scope. Dystrophin in red is the RFP channel (555-nm). Untransduced muscle cells in figure also serve as internal control for differentiation between GFP signal and autofluorescence.

Row | Substance | GFP expression / uptake in mouse retina and RPE (retina and RPE cells) | Shape of loaded mini-nucleosome (TEM) [1] | GFP fluorescence in muscle tissue sections (skeletal muscle cells) | further results
1 | KKRHRK-[LINKER]-LRE-[LINKER]KRHRKLRRRRRLKRHRKKRHRK-[LINKER]-LRE-[LINKER]-K (KKRHRK[LINKER]LRE[LINKER]KRHRKLRRRRRLKRHRKKRHRK[LINKER]LRE[LINKER]K; not fully specified; numbers in words are those of the source; reading uncertain; also: linkers of unspecified length between segments (after 6, 9, 31, 34)) [SEQ ID NO: 394] | transduction into ganglion cells, bipolar cells and photoreceptors | – | – | –
2 | KKKRK-[LINKER]-NGR-[LINKER]-KRKRKKRHRKKKKRRRRKRHRK-[LINKER]-NGR-[LINKER]-KKK (KKKRK[LINKER]NGR[LINKER]KRKRKKRHRKKKKRRRRKRHRK[LINKER]NGR[LINKER]KKK; not fully specified; numbers in words are those of the source; reading uncertain; also: linkers of unspecified length between segments (after 5, 8, 30, 33)) [SEQ ID NO: 390] | – | rod/lobular shaped | – | GFP expression in rat retinal tissue (RPE cells): transduce RPE cells in rat eyes exclusively; GFP native fluorescence in whole lung tissue / sustained expression (lung epithelium): high levels of sustained expression
3 | KKKRK-[LINKER]-KTKKK-[LINKER]-AK-[LINKER]-KALKKK-[LINKER]-KKGKKKKRRRRKAAPKK (KKKRK[LINKER]KTKKK[LINKER]AK[LINKER]KALKKK[LINKER]KKGKKKKRRRRKAAPKK; not fully specified; numbers in words are those of the source; reading uncertain; also: linkers of unspecified length between segments (after 5, 10, 12, 18)) [SEQ ID NO: 392] | enhanced uptake into the RPE | – | – | –
4 | KKKRHRKKKKK-[LINKER]-RGD-[LINKER]-KKKK-[LINKER]-NTQIH-[LINKER]-RRRRR-[LINKER]-TPH-[LINKER]-KK (KKKRHRKKKKK[LINKER]RGD[LINKER]KKKK[LINKER]NTQIH[LINKER]RRRRR[LINKER]TPH[LINKER]KK; not fully specified; numbers in words are those of the source; reading uncertain; also: linkers of unspecified length between segments (after 11, 14, 18, 23, 28, 31)) [SEQ ID NO: 391] | – | mixture of circular and rod like molecules | sharp green fluorescence in skeletal muscle cells | –
5 | KKKRHRKRKRKRKRRRRKKK-[LINKER]-ASSLNIAK-[LINKER]-RRRR (KKKRHRKRKRKRKRRRRKKK[LINKER]ASSLNIAK[LINKER]RRRR; not fully specified; numbers in words are those of the source; reading uncertain; also: linkers of unspecified length between segments (after 20 and 28)) [SEQ ID NO: 389] | – | – | didn't exhibit GFP fluorescence | –
